Experimental data: patent US7335756B2, “Retinoic acid metabolizing cytochrome P450” (Cytochroma Inc., priority 2001, dated 2008)

What was measured:
P450RAI-3 [1] = target: T1, P450RAI-3 (Homo sapiens, UniProt Q6V0L0, F447L); assay: ATRA and 9-cis-RA binding assay, Sf9-Bac-P450RAI-3 insect microsomes; conditions: Kd, substrate binding to P450RAI-3, insect microsomes; Table 4 prints no unit, nM
T1 sequence (Q6V0L0 1-522 F447L): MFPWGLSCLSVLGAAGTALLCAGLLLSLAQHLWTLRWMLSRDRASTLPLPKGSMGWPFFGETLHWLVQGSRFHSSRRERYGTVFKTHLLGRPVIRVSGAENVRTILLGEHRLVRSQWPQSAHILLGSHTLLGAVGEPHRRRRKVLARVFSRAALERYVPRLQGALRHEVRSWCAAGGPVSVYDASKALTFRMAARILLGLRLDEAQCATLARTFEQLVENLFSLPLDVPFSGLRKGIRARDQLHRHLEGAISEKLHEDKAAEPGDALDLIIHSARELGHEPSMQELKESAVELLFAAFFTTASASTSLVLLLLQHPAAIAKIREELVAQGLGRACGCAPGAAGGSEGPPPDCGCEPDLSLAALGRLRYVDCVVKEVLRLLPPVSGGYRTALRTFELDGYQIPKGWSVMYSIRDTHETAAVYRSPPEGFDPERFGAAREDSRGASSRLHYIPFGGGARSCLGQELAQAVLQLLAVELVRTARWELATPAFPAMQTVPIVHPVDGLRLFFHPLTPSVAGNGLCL

CYP26-B [2] = target: T2, CYP26-B (Homo sapiens, UniProt Q9NR63); assay: RA-metabolism cell based assay in CYP26-B-infected Sf9 cells; conditions: 2 nM [3H]-RA
T2 sequence (Q9NR63 1-512): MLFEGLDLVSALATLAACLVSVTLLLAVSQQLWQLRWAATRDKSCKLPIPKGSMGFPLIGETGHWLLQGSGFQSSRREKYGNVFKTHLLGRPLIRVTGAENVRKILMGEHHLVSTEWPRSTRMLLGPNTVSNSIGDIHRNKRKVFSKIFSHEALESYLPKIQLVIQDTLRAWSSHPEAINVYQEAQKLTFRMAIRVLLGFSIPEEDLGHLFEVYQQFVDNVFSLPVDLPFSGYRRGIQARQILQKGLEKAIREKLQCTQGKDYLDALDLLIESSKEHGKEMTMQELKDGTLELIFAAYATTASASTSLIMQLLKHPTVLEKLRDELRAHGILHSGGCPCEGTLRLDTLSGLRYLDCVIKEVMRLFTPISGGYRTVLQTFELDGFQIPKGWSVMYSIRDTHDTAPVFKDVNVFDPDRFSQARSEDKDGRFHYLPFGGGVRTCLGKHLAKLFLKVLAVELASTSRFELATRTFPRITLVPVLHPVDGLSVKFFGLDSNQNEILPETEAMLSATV
Experimental: Recombinant baculovirus expressing either P450RAI-3 or CYP26B (Bac-P450RAI-3 or Bac-CYP26B or CYP26B) was prepared and titrated by end-point dilution and infection of Sf9 cells in 96-well format. Baculovirus expressing vector was co-transfected into Sf9-insect cells. Infected cells were assessed for RA-metabolism after 72 hours post transfection using RA-metabolism cell based assay as follows: the RA-metabolism reaction was started by adding 50 μl of [^3H]-RA solution (20000 cpm, 2 nM final concentration) using an automatic repeating-pipette.
Cells were incubated for 3 hours. The reaction was stopped by adding 5 μl of 10% acetic acid. Organic and aqueous soluble radio-labelled metabolites were extracted using the Bligh-Dyer procedure.

P450RAI-3 [3] = target: T1, P450RAI-3; assay: [3H]-RA-metabolism inhibition, transient Cos-P450RAI-3 cell-based assay; set-up: expressed in transfected cells; host or cells: COS-1 (transient, pcDNA-P450RAI-3, Fugene); conditions: at lower concentrations
Experimental: (§1) The purpose of these experiments is to determine the specific substrates for P450RAI-3. […] The RA metabolism reaction was started by the addition of 50 ul of [^3H]-RA solution (20000 cpm, 2 nM final concentration). Cells were incubated for 3 hours in a humidified CO2 incubator at 37 degrees Celsius. The reaction was stopped by the addition of 5 ul of 10% acetic acid. Organic and aqueous soluble radio-labelled metabolites were extracted using the Bligh-Dyer procedure.

P450RAI-3 [4] = target: T1, P450RAI-3; assay: LC/MS analysis of ATRA and 9-cis-RA metabolism in Hela-P450RAI-3 stable cells; conditions: 5 hours
Experimental: After 5 hours incubation at 37° C., cells were acidified with acetic acid and total retinoids were extracted using Ethyl acetate method. The organic upper layer was pooled and evaporated in speed-vacuum, and dried residues were dissolved in HPLC mobile solvent and analyzed in LC/MS.
The HPLC system consisted of a waters alliance 2690 separations module. Chromatography was obtained on an Eclipse X DB-C18 reverse phase column (5 um, 2.1×150 mm from HP). A gradient elution program was used using acetonitrile, water and 10% acetic acid. The flow was held at 0.2 ml/min.
Mass Spectrometry condition used for this work consisted of a Micro-mass Quatro Ultima Tandem triple quadruple mass spectrometer equipped with electrospray interface (ESI) and operated in a negative mode.

P450RAI-3 [5] = target: T1, P450RAI-3; assay: [3H]-RA-metabolism inhibition (substrate competition) in P450RAI-3 stable transfected Hela cells; assay type: cell-based; set-up: expressed in transfected cells; conditions: 2 nM [3H]-RA, read-out: ID50, competition for P450RAI-3 [3H]-RA metabolism
Experimental: as §1

CYP26-B [6] = target: T2, CYP26-B; assay: [3H]-RA-metabolism inhibition, transient Cos-CYP26-B cell-based assay; conditions: at lower concentrations
P450RAI-3 [7] = target: T1, P450RAI-3; assay: ATRA / 9-cis-RA metabolism in pcDNA-P450RAI-3 transfected Cos-1 cells (Bligh-Dyer, HPLC); assay type: cell-based; set-up: expressed in transfected cells; host or cells: COS-1 (transient, pcDNA-P450RAI-3, Fugene); conditions: 2 nM radio-labeled substrate, 3 hours
Experimental: Mammalian Cos-1 cells were transfected with either pcDNA-P450RAI-3 or pcDNA-control vector using Fugene™ (Roche diagnostic) according to the manufacturers directions. After 48 hours post-tranfection, cells were washed with PBS and assessed for ATRA-metabolism activity as described Briefly, transfected cells were incubated with radio-labeled ^3[H]-ATRA (18000 cpm, 2 nM) for 3 hours. Organic and Water-soluble metabolites were extracted using Bligh-Dyer procedure and radioactivity counted (FIG. 10).
HPLC analysis of the organic metabolites: the Bligh-Dyer organic button-layer was dried out and residues were suspended in HPLC solvent and then analyzed by HPLC as described in [White et al, PNAS, vol 97, pg 6403-6408], FIG. 11.
Mammalian Cos-1 cells were transfected with either pcDNA-P450RAI-3 or pcDNA-control vector according to the manufacturers directions using Fugene (Roche). After 48 hours post-tranfection, cells were washed with PBS and assessed for 9-cis-RA-metabolism activity as described using Bligh-Dyer procedure. Briefly, transfected cells were incubated with radio-labeled ^3[H]-9-cis-RA (38000 cpm, 2 nM) for 3 hours. Organic and Water-soluble metabolites were extracted using Bligh-Dyer procedure and radioactivity counted, FIG. 19.

CC1=C(/C=C/C(C)=C/C=C/C(C)=C/C(=O)O)C(C)(C)CCC1 [ATRA, all-trans-retinoic-acid]
Kd (P450RAI-3 [1]): 45 nM
metabolism by CYP26-B-infected Sf9-cells (CYP26-B [2]): metabolized ATRA and converted it to water-soluble metabolites
competition / inhibition of P450RAI-3 (P450RAI-3 [3]): competed
metabolites formed by P450RAI-3 (P450RAI-3 [4]): hydroxy and oxo-metabolites
IC50 (P450RAI-3 [5]): 300 nM
competition / inhibition of CYP26-B (CYP26-B [6]): competed
metabolism by P450RAI-3 (P450RAI-3 [7]): efficiently metabolize ATRA to polar metabolites
